In patent US20110059909A1, “METHODS FOR TREATING INFLAMMATORY DISORDERS” (priority 2004, published 2011):

Assays:
PI-3K = test: PI-3 kinase activity assay; assay type: cell-based, rat; conditions: exogenous lipid
Experimental: Cells after stimulation in serum-free DMEM/F-12 were lysed with ice-cold lysis buffer containing 1% (vol/vol) NP-40,100 mM NaCl, 20 mM Tris (pH 7.4), 10 mM iodoacetamide, 10 mM NaF, 1 mM sodium orthovanadate, 1 mM […], 1 μg/ml leupeptin, 1 μg/ml antipain, 1 mg/ml aprotinin, and 1 μg/ml pepstatin A. Lysates were incubated at 4° C. for 15 min, followed by centrifugation at 13,000 g for 15 min. The supernatant was pre-cleared with protein G-Sepharose beads (Pharmacia Biotech) for 1 h at 4° C. followed by the addition of 1 μg/ml p85α monoclonal antibody. After 2 h of incubation at 4° C., protein G-Sepharose beads were added and the resulting mixture was further incubated for 1 h at 4° C. The immunoprecipitates were washed twice with lysis buffer, once with phosphate-buffered saline (PBS), once with 0.5 M LiCl and 100 mM Tris (pH 7.6), once in water, and once in kinase buffer (5 mM MgCl2, 0.25 mM EDTA, 20 mM HEPES, pH 7.4). PI-3kinase activity was determined as already described (Ward et al., 1992; Pahan et al., 1999) using a lipid mixture of 100 μl of 0.1 mg/ml PI and 0.1 mg/ml phosphatidylserine dispersed by sonication in 20 mM HEPES (pH 7.0) and 1 mM EDTA. The reaction was initiated by the addition of 20 of [γ-32P] […]

rat SCI model [1] = test: Histology (H&E) and myelin (LFB-PAS) of spinal cord sections, rat SCI model; assay type: in vivo
Text: (§1) Sprague-Dawley female rats (225-250 g weight) were purchased (Harlan laboratories, Durham, N.C.) for induction of SCI. All rats were given water and food pellets ad libitum and maintained in accordance with the ‘Guide for the Care and Use of Laboratory Animals’ of the US Department of Health and Human Services (National Institutes of Health, Bethesda, Md., USA). The inventors have used a clinically relevant weight-drop device for the induction of SCI in rats as described earlier (Gruner, 1992). Briefly, rats were anesthetized by intraperitoneal (i.p.) administration of ketamine (80 mg/kg) plus xylazine (10 mg/kg) followed by laminectomy at T12. While the spine was immobilized with a stereotactic device, injury (30 g/cm force) was induced by dropping a weight of 5 gm from a height of 6 cm onto an impounder gently placed on the spinal cord. Sham operated animals underwent laminectomy only. Upon recovery from anesthesia, animals were evaluated neurologically and monitored for food and water intake. However, no prophylactic antibiotics or analgesics were used in order to avoid their possible interactions with the experimental therapy of SCI.
Rats were anesthetized and sacrificed by decapitation.

rat SCI model [2] = test: BBB locomotor rating, rat SCI model; assay type: in vivo
Text: as §1
Assessment of neurological (functional) recovery was performed by an open-field test using the 21-point Basso, Beattie, Bresnahan (BBB) locomotor rating scale (Basso et al., 1996) until Day 15 post-SCI. […]

neurons = test: Fluorescent TUNEL / NeuN staining of spinal cord sections following SCI; assay type: in vivo, rat
Experimental: TUNEL assay was carried out using APOPTAG Fluorescein In Situ Apoptosis Detection Kit (Serological Corporation, Norcross, Ga.) according to manufacturer's protocol. For double labeling, sections were incubated with mouse anti-neuronal nuclei 1:100 (NeuN, Chemicon, USA). Sections were incubated with TRITC conjugated […] 1:100 (Sigma), mounted in mounting media and visualized by fluorescence microscopy.

[3] = system: primary cultured rat neocortical explants; conditions: cited from earlier work
[4] = system: primary cultured rat neocortical explants; conditions: cited from earlier work; remark: listed apart in the source
TNFα = TNFα expression at the lesion epicenter following SCI
IL-1β = IL-1β expression at the lesion epicenter following SCI

Row | Compound | Reversal of DMS-mediated inhibition of PI-3K activation (PI-3K) | Demyelination at the lesion epicenter (rat SCI model [1]; Day 2 and 3 post-SCI) | Tissue necrosis at the lesion epicenter (rat SCI model [1]; Day 2 and 3 post-SCI) | SCI induced white matter vacuolization and tissue necrosis (rat SCI model [1]; PDMP 20 mg/kg i.p. post-SCI, tissue analyzed 24 h post-SCI) | Protection against tissue destruction (rat SCI model [1]; PDMP given 12 h post-SCI, tissue analyzed 24 h post-SCI) | Demyelination (LFB staining) (rat SCI model [1]; PDMP treatment until 12 h post-SCI, 24 h post-SCI) | BBB score (rat SCI model [2]; Day 3 post-SCI, PDMP 20 mg/kg i.p. at 10 min, 24 h, 48 h, 72 h) | BBB score (rat SCI model [2]; Day 15 post-SCI, PDMP treatment stopped at Day 3) | Apoptosis of neurons (TUNEL/NeuN) (neurons; 24 h post-SCI) | Effect on neuronal survival in sham operated animals (neurons; sham operated, PDMP 20 mg/kg) | Neurite outgrowth [3] | GSL biosynthesis [4] | TNFα mRNA levels (TNFα; 1 h post-SCI) | TNFα protein levels, immunofluorescence (TNFα; post-SCI (sections extracted 1 h)) | IL-1β mRNA levels (IL-1β; 4 h post-SCI) | IL-1β protein levels, immunofluorescence (IL-1β; post-SCI (sections extracted 4 h))
1 | Lactosylceramide [LacCer] | could not reverse | – | – | – | – | – | – | – | – | – | – | – | – | – | – | –
2 | CCCCCCCCCC(=O)NC(CN1CCOCC1)C(O)c1ccccc1.Cl [PDMP, D-threo-1-Phenyl-2-decanoylamino-3-morpholino-1-propanol.HCl] | – | reduced | reduced | markedly decreased | substantial amount of protection | attenuated | 6.9±0.2 | 13.9±0.1 | provided protection | no adverse effect | inhibited | inhibited | markedly inhibited | significantly suppressed | markedly inhibited | significantly suppressed
